Read-outs that look alike come from different tables or passages of the source. Blank lines part the entries; values can stand above or below the compound they belong to.
Key:
[1] = tested on: IFNγ-induced STAT1 phosphorylation (pSTAT1) in B16F10 cells; assay: B16F10 Phospho-STAT1 HTRF proximal pharmacodynamic (PD) assay; type: cell-based, murine; conditions: for EC50: B16-F10; for Thiochromane x-fold>potency cellular: pSTAT1 EC50 of chromane comparator over thiochromane
In short: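 Murine B16F10 melanoma cells dosed 3 h at 37 °C (10-point, 3-fold dilution from 50 μM top dose), then stimulated 10 min with recombinant mouse IFNγ (100 nM final) and stopped with 3.3 μM staurosporine for 1 h. pSTAT1 in lysates detected by HTRF (Eu cryptate/d2 antibodies, 3 h RT, 665 nm emission); EC50 from dose-response curves.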

[2] = target: T1, His tagged full-length PTPN1 protein (Homo sapiens, UniProt P18031); assay: Mobility Shift Assay (MSA) for PTPN1 inhibitors; type: biochemical; conditions: enzyme 0.5 nM, substrate 2 μM, 10 minutes preincubation at room temperature
T1 construct: His; made in house
T1 sequence (P18031 1-435): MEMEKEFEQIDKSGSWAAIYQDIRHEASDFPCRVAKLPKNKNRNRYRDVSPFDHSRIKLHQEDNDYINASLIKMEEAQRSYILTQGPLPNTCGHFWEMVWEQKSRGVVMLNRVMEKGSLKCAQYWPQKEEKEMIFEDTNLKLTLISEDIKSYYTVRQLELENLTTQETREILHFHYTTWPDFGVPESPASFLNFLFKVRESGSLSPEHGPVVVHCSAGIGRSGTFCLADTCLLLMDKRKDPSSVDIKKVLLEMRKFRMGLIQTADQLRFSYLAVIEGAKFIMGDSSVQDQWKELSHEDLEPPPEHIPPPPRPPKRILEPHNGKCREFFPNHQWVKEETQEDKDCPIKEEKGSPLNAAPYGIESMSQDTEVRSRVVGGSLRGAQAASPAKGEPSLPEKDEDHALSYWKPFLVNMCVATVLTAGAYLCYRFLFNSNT
In short: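 Full-length His-tagged human PTPN1 (0.5 nM) was pre-incubated 10 min at RT with compound (12-point, 1:3) in HEPES pH 7.5 buffer with EGTA, EDTA, Tween-20 and DTT. Fluorescent phospho-insulin-receptor peptide (2 μM) was then added for 10 min. After quench, dephosphorylation was measured by microfluidic mobility shift, and IC50 was taken from % inhibition.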

[3] = target: T2, His tagged PTPN2 (TC45) protein (Homo sapiens, UniProt P17706); assay: Mobility Shift Assay (MSA) for PTPN2 inhibitors; type: biochemical; conditions: for Thiochromane x-fold>potency biochemical: PTPN2 MSA IC50 of chromane comparator over thiochromane
T2 construct: His; made in house
T2 sequence (P17706 1-387 isoform P17706-2): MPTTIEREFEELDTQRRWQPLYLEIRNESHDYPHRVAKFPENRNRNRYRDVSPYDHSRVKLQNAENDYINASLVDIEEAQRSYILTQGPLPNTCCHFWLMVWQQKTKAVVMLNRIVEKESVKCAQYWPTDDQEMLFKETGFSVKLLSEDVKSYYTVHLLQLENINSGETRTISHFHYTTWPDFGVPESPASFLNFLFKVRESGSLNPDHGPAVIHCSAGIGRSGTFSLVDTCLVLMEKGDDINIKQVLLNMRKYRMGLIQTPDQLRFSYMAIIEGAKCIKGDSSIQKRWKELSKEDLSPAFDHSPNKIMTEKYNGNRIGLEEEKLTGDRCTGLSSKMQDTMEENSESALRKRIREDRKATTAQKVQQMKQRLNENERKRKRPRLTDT
In short: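 Enzyme (0.5 nM) preincubated 10 min at RT with compound (12-point, 1:3 dilution) in 50 mM HEPES pH 7.5, 10 mM EDTA, 2 mM DTT; OG488-labelled phospho-insulin-receptor peptide substrate (2 μM) then added for 10 min. After quench, dephosphorylation measured by microfluidic mobility shift (ex 488/em 530 nm); IC50 from % inhibition.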

[4] = Table 2, 3 hours compound, then mouse IFNγ 100 nM 10 minutes, top dose 50 μM, read-out: B16F10 IFNγ Induced pSTAT1 EC50
[5] = enzyme 0.5 nM, substrate 2 μM, 10 minutes preincubation at room temperature
[6] = Mus musculus, Table 3, B16F10 cells, IFNγ-induced, thiochromanes (X = S) and chromane comparators (X = O), read-out: pSTAT1 EC50
[7] = Table 3, thiochromanes (X = S) and chromane comparators (X = O)

Structure (SMILES): O=C1CN(c2c(O)cc3c(c2F)C[C@H](NCC2CC2)CS3)S(=O)(=O)N1 [Compound 111, 5-{(3S)-3-[(cyclopropylmethyl)amino]-5-fluoro-7-hydroxy-3,4-dihydro-2H-1-benzothiopyran-6-yl}-1λ^6,2,5-thiadiazolidine-1,1,3-trione]
EC50 [1, 4]: 7.98 µM
IC50 [2]: 10 to 100 nM
IC50 [3, 5]: 10 to 100 nM

Structure (SMILES): CC(CCN[C@@H]1CSc2cc(O)c(N3CC(=O)NS3(=O)=O)c(F)c2C1)c1ccccc1 (stereo partly drawn) [Compound 134, 5-{(3S)-5-fluoro-7-hydroxy-3-[(3-phenylbutyl)amino]-3,4-dihydro-2H-1-benzothiopyran-6-yl}-1λ^6,2,5-thiadiazolidine-1,1,3-trione]
EC50 [1, 4]: > 50 µM
IC50 [2]: 10 to 100 nM
IC50 [3, 5]: < 10 nM

Structure (SMILES): O=C1CN(c2c(O)cc3c(c2F)C[C@H](NCCC2(CO)CCC2)CS3)S(=O)(=O)N1 [Compound 104, 5-[(3S)-5-fluoro-7-hydroxy-3-({2-[1-(hydroxymethyl)cyclobutyl]ethyl}amino)-3,4-dihydro-2H-1-benzothiopyran-6-yl]-1λ^6,2,5-thiadiazolidine-1,1,3-trione]
EC50 [1, 4]: 3.35 µM
IC50 [2]: 10 to 100 nM
IC50 [3, 5]: < 10 nM

Structure (SMILES): O=C1CN(c2c(O)cc3c(c2F)C[C@H](NCC2(CF)CC2)CS3)S(=O)(=O)N1 [Compound 128, 5-[(3S)-5-fluoro-3-({[1-(fluoromethyl)cyclopropyl]methyl}amino)-7-hydroxy-3,4-dihydro-2H-1-benzothiopyran-6-yl]-1λ^6,2,5-thiadiazolidine-1,1,3-trione]
EC50 [1, 4]: 25.7 µM
EC50 [1, 6]: 25.7 µM
Thiochromane x-fold>potency cellular ([1]; Table 3): >1.9
IC50 [2]: 10 to 100 nM
Thiochromane x-fold>potency biochemical ([3]; Table 3): 1.2
IC50 [3, 5]: 10 to 100 nM

Structure (SMILES): O=C1CN(c2c(O)cc3c(c2F)C[C@H](NCCC2CCOCC2)CS3)S(=O)(=O)N1 [Compound 109, 5-[(3S)-5-fluoro-7-hydroxy-3-{[2-(oxan-4-yl)ethyl]amino}-3,4-dihydro-2H-1-benzothiopyran-6-yl]-1λ^6,2,5-thiadiazolidine-1,1,3-trione]
EC50 [1, 4]: 6.03 µM
EC50 [1, 6]: 6.03 µM
Thiochromane x-fold>potency cellular ([1]; Table 3): 5.3
IC50 [2]: 10 to 100 nM
Thiochromane x-fold>potency biochemical ([3]; Table 3): 2.0
IC50 [3, 5]: < 10 nM

Structure (SMILES): O=C1CN(c2c(O)cc3c(c2F)C[C@H](NCCC2CCCCC2)CS3)S(=O)(=O)N1 [Compound 118, 5-{(3S)-3-[(2-cyclohexylethyl)amino]-5-fluoro-7-hydroxy-3,4-dihydro-2H-1-benzothiopyran-6-yl}-1λ^6,2,5-thiadiazolidine-1,1,3-trione]
EC50 [1, 4]: 4.22 µM
IC50 [2]: < 10 nM
IC50 [3, 5]: < 10 nM

Structure (SMILES): CC(C)(C)OC(=O)N1CCC(CN[C@@H]2CSc3cc(O)c(N4CC(=O)NS4(=O)=O)c(F)c3C2)CC1 [Compound 141, tert-butyl 4-({[(3S)-5-fluoro-7-hydroxy-6-(1,1,4-trioxo-1λ^6,2,5-thiadiazolidin-2-yl)-3,4-dihydro-2H-1-benzothiopyran-3-yl]amino}methyl)piperidine-1-carboxylate]
EC50 [1, 4]: 6.97 µM
EC50 [1, 6]: 6.97 µM
Thiochromane x-fold>potency cellular ([1]; Table 3): >7.2
IC50 [2]: 10 to 100 nM
Thiochromane x-fold>potency biochemical ([3]; Table 3): 1.0
IC50 [3, 5]: 10 to 100 nM

Structure (SMILES): CC(C)N[C@@H]1CSc2cc(O)c(N3CC(=O)NS3(=O)=O)c(F)c2C1 [Compound 116, 5-{(3S)-5-fluoro-7-hydroxy-3-[(propan-2-yl)amino]-3,4-dihydro-2H-1-benzothiopyran-6-yl}-1λ^6,2,5-thiadiazolidine-1,1,3-trione]
EC50 [1, 4]: 17.2 µM
IC50 [2]: > 100 nM
IC50 [3, 5]: 10 to 100 nM

The next compounds have a lower EC50 [1, 4] than those just listed; values first:

EC50 [1, 4]: 1.01 µM
IC50 [2]: < 10 nM
Structure (SMILES): O=C1CN(c2c(O)cc3c(c2F)C[C@H](NCCC2CCCC2)CS3)S(=O)(=O)N1 [Compound 120, 5-{(3S)-3-[(2-cyclopentylethyl)amino]-5-fluoro-7-hydroxy-3,4-dihydro-2H-1-benzothiopyran-6-yl}-1λ^6,2,5-thiadiazolidine-1,1,3-trione]
IC50 [3, 5]: < 10 nM

EC50 [1, 4]: 0.528 µM
EC50 [1, 6]: 0.528 µM
IC50 [2]: < 10 nM
Structure (SMILES): CC(C)CCN[C@@H]1CSc2cc(O)c(N3CC(=O)NS3(=O)=O)c(F)c2C1 [Compound 103, 5-{(3S)-5-fluoro-7-hydroxy-3-[(3-methylbutyl)amino]-3,4-dihydro-2H-1-benzothiopyran-6-yl}-1λ^6,2,5-thiadiazolidine-1,1,3-trione]
Thiochromane x-fold>potency cellular ([1]; Table 3): 13.2
Thiochromane x-fold>potency biochemical ([3]; Table 3): 11.9
IC50 [3, 7]: 1 nM
IC50 [3, 5]: < 10 nM

EC50 [1, 4]: 1.83 µM
IC50 [2]: < 10 nM
Structure (SMILES): CC(C)C(C)CN[C@@H]1CSc2cc(O)c(N3CC(=O)NS3(=O)=O)c(F)c2C1 (stereo partly drawn) [Compound 115, 5-{(3S)-3-[(2,3-dimethylbutyl)amino]-5-fluoro-7-hydroxy-3,4-dihydro-2H-1-benzothiopyran-6-yl}-1λ^6,2,5-thiadiazolidine-1,1,3-trione]
IC50 [3, 5]: < 10 nM

EC50 [1, 4]: 1.58 µM
IC50 [2]: 10 to 100 nM
Structure (SMILES): CC1(CCN[C@@H]2CSc3cc(O)c(N4CC(=O)NS4(=O)=O)c(F)c3C2)CC1 [Compound 132, 5-[(3S)-5-fluoro-7-hydroxy-3-{[2-(1-methylcyclopropyl)ethyl]amino}-3,4-dihydro-2H-1-benzothiopyran-6-yl]-1λ^6,2,5-thiadiazolidine-1,1,3-trione]
IC50 [3, 5]: < 10 nM

EC50 [1, 4]: 0.589 µM
IC50 [2]: < 10 nM
Structure (SMILES): CC(F)(F)CCCN[C@@H]1CSc2cc(O)c(N3CC(=O)NS3(=O)=O)c(F)c2C1 [Compound 129, 5-{(3S)-3-[(4,4-difluoropentyl)amino]-5-fluoro-7-hydroxy-3,4-dihydro-2H-1-benzothiopyran-6-yl}-1λ^6,2,5-thiadiazolidine-1,1,3-trione]
IC50 [3, 5]: < 10 nM

EC50 [1, 4]: 0.164 µM
IC50 [2]: < 10 nM
Structure (SMILES): O=C1CN(c2c(O)cc3c(c2F)C[C@H](NCCCC(F)F)CS3)S(=O)(=O)N1 [Compound 100, 5-{(3S)-3-[(4,4-difluorobutyl)amino]-5-fluoro-7-hydroxy-3,4-dihydro-2H-1-benzothiopyran-6-yl}-1λ^6,2,5-thiadiazolidine-1,1,3-trione]
Thiochromane x-fold>potency biochemical ([3]; Table 3): 3.4
IC50 [3, 7]: 2 nM
IC50 [3, 5]: < 10 nM

— patent US20250042894A1, “PROTEIN TYROSINE PHOSPHATASE INHIBITORS AND METHODS OF USE THEREOF” (Calico Life Sciences LLC, priority 2021, published 2025)
